Test results: PubChem BioAssay (NCI)
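Dose response: 5 concentrations. Exposure: 48 h. Format: 96-well plates. Endpoint: linear interpolation; highest concentration if not reached. GI50: concentration for 50% inhibition of growth. Definition used: TGI = concentration required for complete inhibition of growth.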

Key:
Assay in all cases: NCI tumour cell line growth inhibition, 48 h
ACHN renal = test system: ACHN renal
HCT-116 colon = test system: HCT-116 colon
HT29 colon = test system: HT29 colon
IGROV1 ovarian = test system: IGROV1 ovarian
K-562 leukemia = test system: K-562 leukemia
KM12 colon = test system: KM12 colon
M14 melanoma = test system: M14 melanoma
OVCAR-8 ovarian = test system: OVCAR-8 ovarian
RPMI-8226 leukemia = test system: RPMI-8226 leukemia
SK-OV-3 ovarian = test system: SK-OV-3 ovarian

Row | Compound | TGI (ACHN renal) | TGI (HCT-116 colon) | TGI (HT29 colon) | TGI (IGROV1 ovarian) | TGI (K-562 leukemia) | TGI (KM12 colon) | TGI (M14 melanoma) | TGI (OVCAR-8 ovarian) | TGI (RPMI-8226 leukemia) | TGI (SK-OV-3 ovarian) | GI50 (ACHN renal) | GI50 (HCT-116 colon) | GI50 (HT29 colon) | GI50 (IGROV1 ovarian) | GI50 (K-562 leukemia) | GI50 (KM12 colon) | GI50 (M14 melanoma) | GI50 (OVCAR-8 ovarian) | GI50 (SK-OV-3 ovarian) | GI50 (RPMI-8226 leukemia)
1 | O=C(O)c1cc(Cl)cc(NC(=O)C(Cl)Cl)c1Cl | > 100 µM | > 100 µM | > 100 µM | > 100 µM | > 100 µM | > 100 µM | > 100 µM | > 100 µM | > 100 µM | > 100 µM |  |  |  |  |  |  |  |  |  | 
2 | COC(=O)C(CC=O)C(=O)C(=O)Nc1cccc(C(F)(F)F)c1 (stereo not drawn) | > 100 µM | > 100 µM | > 100 µM | > 100 µM | > 100 µM | > 100 µM | > 100 µM | > 100 µM | > 100 µM | > 100 µM |  |  |  |  |  |  |  |  |  | 
3 | COc1c(O)c(OC)c(C(=O)/C=C/c2ccccc2)c(O)c1OC | 58.1 µM | 34.5 µM | > 100 µM | > 100 µM | > 100 µM | > 100 µM | > 100 µM | 38.1 µM | > 100 µM | > 100 µM |  |  |  |  |  |  |  |  |  | 
4 | Cc1cc(N(CCC#N)S(=O)(=O)c2ccccc2)ccc1C=O | > 100 µM | > 100 µM | > 100 µM | > 100 µM | > 100 µM | > 100 µM | > 100 µM | > 100 µM | > 100 µM | > 100 µM |  |  |  |  |  |  |  |  |  | 
5 | CC1CCC(O)C(C(O)CC2CC(=O)N(C)C(=O)C2)C1 (stereo not drawn) | > 100 µM | > 100 µM | > 100 µM | > 100 µM | > 100 µM | > 100 µM | > 100 µM | > 100 µM | > 100 µM | > 100 µM |  |  |  |  |  |  |  |  |  | 
6 | O=c1c2ccccc2nc(-c2ccccc2)n1NCC1(O)OCC(O)C(O)C1O (stereo not drawn) | > 100 µM | > 100 µM | > 100 µM | > 100 µM | > 100 µM | > 100 µM | > 100 µM | > 100 µM | > 100 µM | > 100 µM |  |  |  |  |  |  |  |  |  | 
7 | N#Cc1c2c(c(N=[N+]=[N-])n3c1nc1ccccc13)CCCC2 | 5.46 µM | 3.51 µM | 3.77 µM | 6.56 µM | 8.21 µM | 5.53 µM | 3.48 µM | 3.09 µM | 6.85 µM | 3.64 µM |  |  |  |  |  |  |  |  |  | 
8 | Cc1cc(CS(=O)(=O)/C=C/c2ccccc2[N+](=O)[O-])c(CS(=O)(=O)/C=C/c2ccccc2[N+](=O)[O-])cc1C | > 100 µM | > 100 µM | > 100 µM | > 100 µM | > 100 µM | > 100 µM | > 100 µM | > 100 µM | > 86 µM | 37.5 µM |  |  |  |  |  |  |  |  |  | 
9 | c1ccc2c(c1)nc(NCCN1CCNCC1)c1c3ccccc3[nH]c21 | 2.38 µM | 1.42 µM | 1.53 µM | 8.18 µM | 2.07 µM | 2.56 µM | 2.81 µM | 0.883 µM | 0.399 µM | 8.53 µM | 0.369 µM | 0.165 µM | 0.167 µM | 0.84 µM | 0.0935 µM | 0.369 µM | 1.24 µM | 0.111 µM | 2.16 µM | 
10 | N#CC1c2ccccc2-c2ccccc2N1C(=O)c1ccccc1 (stereo not drawn) | > 100 µM | 9.22 µM | > 25.3 µM | 7.01 µM |  | 4.17 µM | 7.1 µM | 96.9 µM | 5.32 µM | > 45.2 µM | 4.05 µM | 1.74 µM | 1.1 µM | 2.66 µM | 1.04 µM | 1.16 µM | 1.47 µM | 3.63 µM | 4.36 µM | 0.903 µM
11 | CN1CCCC1c1cccnc1.O=C(O)c1ccccc1O.O=C([O-])c1ccccc1[OH2+].O=C([O-])c1ccccc1[OH2+].O=C([O-])c1ccccc1[OH2+].[Mn+2] (stereo not drawn) | > 100 µM | > 100 µM | > 100 µM | > 100 µM | > 100 µM | > 100 µM | > 100 µM | > 100 µM | > 100 µM | > 100 µM | > 100 µM | > 100 µM | > 100 µM | 97.7 µM | > 100 µM | > 100 µM | > 100 µM | > 100 µM | > 100 µM | 92.7 µM
12 | CC1=CC2=C(C)C3(CC3)[C@@](C)(O)C(=O)C2=C1 | 0.379 µM | 0.357 µM | 0.803 µM | > 0.979 µM | > 1 µM | > 0.918 µM | 0.393 µM | 0.706 µM | > 1 µM | 0.799 µM |  |  |  |  |  |  |  |  |  | 
13 | CC(=O)NC1C(OCc2ccccc2)OC(COC(=O)CCCCCCCCCCNC(=O)c2cccc3c(=O)c4ccccc4[nH]c23)C(O)C1OC(C)C(=O)NC(C)C(=O)NC(CCC(N)=O)C(N)=O (stereo not drawn) | > 100 µM | > 100 µM | > 100 µM | > 100 µM | > 100 µM | > 100 µM | > 100 µM | > 100 µM | > 100 µM | > 100 µM |  |  |  |  |  |  |  |  |  | 
14 | Cc1ccc(C2=Nc3c(N)ncnc3NC(c3cccc(Nc4ccnc5cc(C(F)(F)F)ccc45)c3)C2)cc1 (stereo not drawn) | > 100 µM | 10.5 µM | 7.29 µM | 90.9 µM | > 100 µM | 13.3 µM | 5.29 µM | 76.7 µM | 6.05 µM | 51 µM | 4.69 µM | 2.86 µM | 2.45 µM | 4.93 µM | 3.44 µM | 3.26 µM | 2.11 µM | 5.89 µM | 5.93 µM | 2.17 µM
15 | C/C(=C(/c1ccc(O)cc1)c1ccc(OCCN2CCCC2)cc1)c1ccccc1 | 16.3 µM | 10.1 µM | 3.2 µM | 27 µM | 4.77 µM | 13.2 µM | 4.08 µM | 23.1 µM | 6.72 µM | 13 µM | 4.28 µM | 2.92 µM | 1.35 µM | 6.8 µM | 1.81 µM | 3.51 µM | 1.88 µM | 5.73 µM | 3.25 µM | 2.4 µM
16 | O=C1C=C(Nc2cccc(Br)c2)c2ccccc2C1=O | > 100 µM | 44.5 µM | > 100 µM | 37.5 µM | 18.3 µM | > 100 µM | 13.1 µM | 93.4 µM | > 100 µM | 30 µM | 0.957 µM | 10.6 µM | 69.1 µM | 10.5 µM | 1.52 µM | 4.13 µM | 0.611 µM | 18.6 µM | 6.42 µM | 22.2 µM
17 | CC(C)c1ccc(/C=C(\NC(=O)c2ccccc2)c2nc3ccccc3[nH]2)cc1 | > 100 µM | > 100 µM | > 100 µM | > 100 µM | > 100 µM | > 100 µM | > 100 µM | 86.9 µM | 45.2 µM | > 100 µM |  |  |  |  |  |  |  |  |  | 
